Columns and labels:
Format in all cases: in vivo
Avena fatua = assay: Test Example 5: herbicidal effect by foliage application, plastic box (symbol I); settings: 320 g/ha, 3 weeks after application
Procedure, shortened: (§1)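 Post-emergence spray; diluvial soil (sterilized), ~1.5 cm seed cover; greenhouse 25–30° C; 14-day-old plants; water-diluted emulsion at predetermined dose; visual score at 3 wk post-treatment.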

Scirpus juncoides = assay: Test Example 2: herbicidal activity, application during weed generation in submerged conditions (symbol B); settings: Table 23; application herbicide amount 320 g/ha; grade 0-5 by criteria of Test Example 1
Procedure, shortened: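 Weeds emerging under flooded conditions were treated with compound formulated as an emulsion and diluted with water to the intended herbicide amount, poured onto the surface of 4 cm standing water. Seeds had been co-sown in alluvial soil; plants grew at 25° C. to 30° C. and were assessed after 3 weeks.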

Monochoria vaginalis = assay: Test Example 1: herbicidal activity, application before weed generation in submerged conditions (symbol C); settings: application herbicide amount 320 g/ha
Procedure, shortened: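 Pre-emergence, paddy conditions: emulsifiable formulation diluted in water, dosed onto floodwater (4 cm depth) on sowing day. Alluvial soil; weeds sown mixed; rice transplanted at 2.5-leaf stage. Greenhouse 25–30 °C, 3 wk. Score 0–5 (5 = ≥90% kill, 0 = ≤5%).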

[1] = tested on: Echinochloa crus-galli var. crus-galli; assay: Test Example 3: herbicidal effect by foliage application, Wagner pot (symbol H); settings: application herbicide amount 320 g/ha
Procedure, shortened: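 Alluvial soil was flooded to a depth of 0.1–0.5 cm, seeded with the weeds and rice, and kept in a greenhouse at 25–30 °C. After 14 days of growth, the foliage received a small-sprayer application of emulsion diluted to the intended rate; injury was rated at 3 weeks.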

soybean = assay: Test Example 5: effect on crop by foliage application, plastic box (symbol d); settings: 320 g/ha, 3 weeks after application
Procedure, shortened: (§2)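 Crop seed is sown alongside grass and broadleaf weed species in spots in sterilized diluvial soil, then covered to a depth of about 1.5 cm. Plants grow in a greenhouse kept at 25° C. to 30° C.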

beet = assay: Test Example 4: effect on crop by soil treatment (symbol f); settings: application herbicide amount 320 g/ha
Procedure, shortened: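 Plants grew in a 25° C. to 30° C. greenhouse after spot-sowing of seeds, including beet, rapeseed, wheat and rice, into sterilized diluvial soil under roughly 1.5 cm of cover soil.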

[2] = tested on: directly sowed rice plant; assay: Test Example 3: effect on crop by foliage application, Wagner pot (symbol b); settings: application herbicide amount 320 g/ha
Procedure, shortened: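 Wagner pot (1/10000 are), alluvial soil, submerged 0.1–0.5 cm; sown E. crus-galli var. crus-galli, L. chinensis, C. difformis, rice; greenhouse 25–30 °C.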

rapeseed = assay: Test Example 5: effect on crop by foliage application, plastic box (symbol g); settings: 320 g/ha, 3 weeks after application
Procedure, shortened: as §2

Veronica persica = assay: Test Example 5: herbicidal effect by foliage application, plastic box (symbol R); settings: 320 g/ha, 3 weeks after application
Procedure, shortened: as §1

What does the source list for `CON=C(C)CC1CC(O)=C(c2c(C)cc(C#CC3CC3)cc2C)C1=O` (mixture of isomers) [6-010]?
I: Avena fatua, herbicidal effect grade (Avena fatua): 3 (Herbicidal ratio of 40% or higher and lower than 70%); Herbicidal effect grade, B: Scirpus juncoides (Scirpus juncoides): 3 (Herbicidal ratio of 40% or higher and lower than 70%); Herbicidal effect grade, C: Monochoria vaginalis (Monochoria vaginalis): 1 (Herbicidal ratio of 5% or higher and lower than 20%); herbicidal effect on H (Echinochloa crus-galli var. crus-galli), grade 0-5 [1]: 5 (Herbicidal ratio of 90% or more (almost completely withered)); d: soybean, effect on crop grade (soybean): 3 (Herbicidal ratio of 40% or higher and lower than 70%); f: beet, effect on crop grade (beet): 0 (Herbicidal ratio of 5% or lower (almost no effect)); effect on crop b (directly sowed rice plant), grade 0-5 [2]: 5 (Herbicidal ratio of 90% or more (almost completely withered)); g: rapeseed, effect on crop grade (rapeseed): 0 (Herbicidal ratio of 5% or lower (almost no effect))

Which results are given for `CON=C(C)CC1CC(O)=C(c2c(C)cc(-c3ccccc3)cc2C)C1=O` (stereo not shown) [6-015]?
I: Avena fatua, herbicidal effect grade (Avena fatua): 4 (Herbicidal ratio of 70% or higher and lower than 90%); Herbicidal effect grade, B: Scirpus juncoides (Scirpus juncoides): 5 (Herbicidal ratio of 90% or more (almost completely withered)); Herbicidal effect grade, C: Monochoria vaginalis (Monochoria vaginalis): 5 (Herbicidal ratio of 90% or more (almost completely withered)); herbicidal effect on H (Echinochloa crus-galli var. crus-galli), grade 0-5 [1]: 5 (Herbicidal ratio of 90% or more (almost completely withered)); d: soybean, effect on crop grade (soybean): 3 (Herbicidal ratio of 40% or higher and lower than 70%); f: beet, effect on crop grade (beet): 0 (Herbicidal ratio of 5% or lower (almost no effect)); effect on crop b (directly sowed rice plant), grade 0-5 [2]: 5 (Herbicidal ratio of 90% or more (almost completely withered)); g: rapeseed, effect on crop grade (rapeseed): 4 (Herbicidal ratio of 70% or higher and lower than 90%)

How did the “I: Avena fatua, herbicidal effect grade” value (Avena fatua) turn out when `CCC(=O)CCC1CC(OC)=C(c2c(C)cc(C)cc2C)C1=O` (stereo not shown) [5-002] was run?
Its value is 0 (Herbicidal ratio of 5% or lower (almost no effect)).

And the “Herbicidal effect grade, B: Scirpus juncoides” value (“Herbicidal effect grade, B” below) (Scirpus juncoides)?
The value was 0 (Herbicidal ratio of 5% or lower (almost no effect)).

What about the “Herbicidal effect grade, C: Monochoria vaginalis” value (“Herbicidal effect grade, C” below) (Monochoria vaginalis) of the same compound?
Its value is 0 (Herbicidal ratio of 5% or lower (almost no effect)).

What about the “herbicidal effect on H (Echinochloa crus-galli var. crus-galli), grade 0-5” value (“herbicidal effect on H” below) [1] of the same compound?
Its value is 0 (Herbicidal ratio of 5% or lower (almost no effect)).

What about the “d: soybean, effect on crop grade” value (soybean) of the same compound?
Its value is 0 (Herbicidal ratio of 5% or lower (almost no effect)).

And the “f: beet, effect on crop grade” value (beet)?
The value was 0 (Herbicidal ratio of 5% or lower (almost no effect)).

What about the “effect on crop b (directly sowed rice plant), grade 0-5” value (“effect on crop b” below) [2] of the same compound?
The value was 0 (Herbicidal ratio of 5% or lower (almost no effect)).

For `C#CCOC1=C(c2c(C)cc(C)cc2C)C(=O)C(CC(C)=NOC)C1` (stereo not shown) [1-008], which “R: Veronica persica, herbicidal effect grade” value (from here on “R: Veronica persica”) (Veronica persica) is on record?
The value was 0 (Herbicidal ratio of 5% or lower (almost no effect)).

And the “I: Avena fatua, herbicidal effect grade” value (Avena fatua)?
The value was 4 (Herbicidal ratio of 70% or higher and lower than 90%).

What about the “Herbicidal effect grade, B” value (Scirpus juncoides) of the same compound?
The value was 2 (Herbicidal ratio of 20% or higher and lower than 40%).

And the “Herbicidal effect grade, C” value (Monochoria vaginalis)?
The value was 0 (Herbicidal ratio of 5% or lower (almost no effect)).

And the “herbicidal effect on H” value [1]?
The value was 5 (Herbicidal ratio of 90% or more (almost completely withered)).

And the “d: soybean, effect on crop grade” value (soybean)?
The value was 2 (Herbicidal ratio of 20% or higher and lower than 40%).

What about the “effect on crop b” value [2] of the same compound?
The value was 5 (Herbicidal ratio of 90% or more (almost completely withered)).

What about the “g: rapeseed, effect on crop grade” value (rapeseed) of the same compound?
The value was 3 (Herbicidal ratio of 40% or higher and lower than 70%).

Which results are given for `CON=C(C)CC1CC(O)=C(c2c(C)cc(-n3cc(Cl)cn3)cc2C)C1=O` (mixture of isomers) [6-004]?
R: Veronica persica, herbicidal effect grade (Veronica persica): 3 (Herbicidal ratio of 40% or higher and lower than 70%); I: Avena fatua, herbicidal effect grade (Avena fatua): 4 (Herbicidal ratio of 70% or higher and lower than 90%); Herbicidal effect grade, B: Scirpus juncoides (Scirpus juncoides): 4 (Herbicidal ratio of 70% or higher and lower than 90%); Herbicidal effect grade, C: Monochoria vaginalis (Monochoria vaginalis): 2 (Herbicidal ratio of 20% or higher and lower than 40%); herbicidal effect on H (Echinochloa crus-galli var. crus-galli), grade 0-5 [1]: 5 (Herbicidal ratio of 90% or more (almost completely withered)); d: soybean, effect on crop grade (soybean): 1 (Herbicidal ratio of 5% or higher and lower than 20%); effect on crop b (directly sowed rice plant), grade 0-5 [2]: 5 (Herbicidal ratio of 90% or more (almost completely withered)); g: rapeseed, effect on crop grade (rapeseed): 4 (Herbicidal ratio of 70% or higher and lower than 90%)

What does the source list for `CC#Cc1cc(C)c(C2=C(O)CC(CC(C)=NOC)C2=O)c(C)c1` (mixture of isomers) [6-009]?
I: Avena fatua, herbicidal effect grade (Avena fatua): 4 (Herbicidal ratio of 70% or higher and lower than 90%); Herbicidal effect grade, B: Scirpus juncoides (Scirpus juncoides): 0 (Herbicidal ratio of 5% or lower (almost no effect)); Herbicidal effect grade, C: Monochoria vaginalis (Monochoria vaginalis): 0 (Herbicidal ratio of 5% or lower (almost no effect)); herbicidal effect on H (Echinochloa crus-galli var. crus-galli), grade 0-5 [1]: 5 (Herbicidal ratio of 90% or more (almost completely withered)); d: soybean, effect on crop grade (soybean): 3 (Herbicidal ratio of 40% or higher and lower than 70%); f: beet, effect on crop grade (beet): 2 (Herbicidal ratio of 20% or higher and lower than 40%); effect on crop b (directly sowed rice plant), grade 0-5 [2]: 5 (Herbicidal ratio of 90% or more (almost completely withered)); g: rapeseed, effect on crop grade (rapeseed): 4 (Herbicidal ratio of 70% or higher and lower than 90%)

With `Cc1cc(C)c(C2=C(O)CC(CC(=O)C(C)C)C2=O)c(C)c1` (stereo not shown) [2-016] as the compound, how does the “R: Veronica persica” value (Veronica persica) read?
Its value is 0 (Herbicidal ratio of 5% or lower (almost no effect)).

And the “I: Avena fatua, herbicidal effect grade” value (Avena fatua)?
Its value is 4 (Herbicidal ratio of 70% or higher and lower than 90%).

What about the “Herbicidal effect grade, B” value (Scirpus juncoides) of the same compound?
The value was 0 (Herbicidal ratio of 5% or lower (almost no effect)).

What about the “Herbicidal effect grade, C” value (Monochoria vaginalis) of the same compound?
Its value is 0 (Herbicidal ratio of 5% or lower (almost no effect)).

What about the “herbicidal effect on H” value [1] of the same compound?
The value was 5 (Herbicidal ratio of 90% or more (almost completely withered)).

What about the “d: soybean, effect on crop grade” value (soybean) of the same compound?
Its value is 3 (Herbicidal ratio of 40% or higher and lower than 70%).

What about the “effect on crop b” value [2] of the same compound?
The value was 5 (Herbicidal ratio of 90% or more (almost completely withered)).

And the “g: rapeseed, effect on crop grade” value (rapeseed)?
Its value is 4 (Herbicidal ratio of 70% or higher and lower than 90%).

With `CON=C(C)CC1CC(O)=C(c2c(C)cc(C(=O)OC)cc2C)C1=O` (stereo not shown) [6-023] as the compound, how does the “R: Veronica persica” value (Veronica persica) read?
The value was 1 (Herbicidal ratio of 5% or higher and lower than 20%).

What about the “I: Avena fatua, herbicidal effect grade” value (Avena fatua) of the same compound?
Its value is 5 (Herbicidal ratio of 90% or more (almost completely withered)).

What about the “Herbicidal effect grade, C” value (Monochoria vaginalis) of the same compound?
The value was 0 (Herbicidal ratio of 5% or lower (almost no effect)).

And the “herbicidal effect on H” value [1]?
The value was 5 (Herbicidal ratio of 90% or more (almost completely withered)).

What about the “d: soybean, effect on crop grade” value (soybean) of the same compound?
The value was 0 (Herbicidal ratio of 5% or lower (almost no effect)).

And the “effect on crop b” value [2]?
Its value is 5 (Herbicidal ratio of 90% or more (almost completely withered)).

What about the “g: rapeseed, effect on crop grade” value (rapeseed) of the same compound?
Its value is 3 (Herbicidal ratio of 40% or higher and lower than 70%).

How did the “I: Avena fatua, herbicidal effect grade” value (Avena fatua) turn out when `CC#Cc1cc(C)c(C2=C(O)CC(CC(C)=NOC)C2=O)c(CC)c1` (mixture of isomers) [6-006] was run?
The value was 1 (Herbicidal ratio of 5% or higher and lower than 20%).

What about the “Herbicidal effect grade, B” value (Scirpus juncoides) of the same compound?
Its value is 5 (Herbicidal ratio of 90% or more (almost completely withered)).

What about the “Herbicidal effect grade, C” value (Monochoria vaginalis) of the same compound?
The value was 1 (Herbicidal ratio of 5% or higher and lower than 20%).

And the “herbicidal effect on H” value [1]?
The value was 5 (Herbicidal ratio of 90% or more (almost completely withered)).

What about the “d: soybean, effect on crop grade” value (soybean) of the same compound?
Its value is 0 (Herbicidal ratio of 5% or lower (almost no effect)).

And the “f: beet, effect on crop grade” value (beet)?
The value was 0 (Herbicidal ratio of 5% or lower (almost no effect)).

What about the “effect on crop b” value [2] of the same compound?
The value was 5 (Herbicidal ratio of 90% or more (almost completely withered)).

What about the “g: rapeseed, effect on crop grade” value (rapeseed) of the same compound?
The value was 4 (Herbicidal ratio of 70% or higher and lower than 90%).

Source: patent publication US11000033B2, “Ketone or oxime compound, and herbicide” (NISSAN CHEMICAL CORPORATION, priority 2014, dated 2021)
